{"source": "patent US20110201622A1", "about": "“Solid Forms Comprising A Cyclopropyl Amide Derivative” (priority 2010, published 2011)", "key": {"[1]": {"experiment": "Thermal gravimetric analysis (TGA)", "type": "physicochemical", "description": "Solid material obtained according to the Example 5 was analyzed by thermal techniques."}, "[2]": {"experiment": "Dynamic vapor sorption (DVS) analysis", "type": "physicochemical", "conditions": "about ambient temperature, about 0% RH to about 90% RH", "description": "Solid material obtained according to Example 5 was analyzed by DVS techniques. Isothermic DVS analysis was performed at about ambient temperature by increasing a sample of Form I of Compound I from about 0% RH to about 90% RH.\nDVS analysis is performed on samples prepared according to standard methods using standard equipment, e.g., a DVS instrument commercially available from Surface Measurement Systems, Ltd.™(Alperton, London, UK). Samples maintained at ambient temperature are cycled between about 0% RH and about 90% RH. Percent changes in mass are recorded, which are indicative of moisture sorption and desorption."}}}
{"smiles": "C[C@@H]1CN(C2CCC2)CCN1C(=O)[C@H]1C[C@@H]1c1ccc(C(N)=O)cc1", "note": "[Form I of Compound I, 4-{(1S, 2S)-2-[((R)-4-cyclobutyl-2-methylpiperazin-1-yl)carbonyl]-cyclopropyl}-benzamide]", "values": [{"measurement": "mass loss (TGA)", "setting": "[1]; upon heating from about 20° C. to about 100° C.", "result": "about 0.25%"}, {"measurement": "further mass loss (TGA)", "setting": "[1]; upon heating from about 100° C. to about 160° C.", "result": "about 0.25%"}, {"measurement": "hygroscopicity (DVS analysis)", "setting": "[2]", "result": "substantially nonhygroscopic"}]}
